Data as given in patent publication US11331369B2, “Endoparasitic depsipeptides” (Zoetis Services LLC, priority 2017, dated 2022).

How the values were obtained:
Assay type in all cases: cell-based
[1] = test system: 4th stage larvae (L4) of Dirofilaria immitis; experiment: Dirofilaria immitis, L4 Stage (DiL4) In Vitro Assay; details: Dirofilaria immitis, 72 h, read-out: DiL4 Minimum Effective Dose (MED), approximately 72 hours incubation; L4 larvae assessed for survival or paralysis
[2] = test system: microfilariae of Dirofilaria immitis; experiment: Dirofilaria immitis, Microfilaria (DiMF) In vitro Assay; details: 72 h, read-out: DiMF Minimum Effective Dose (MED), approximately 72 hours incubation, microfilariae assessed for survival or paralysis
[3] = test system: third stage larvae of Haemonchus contortus; experiment: Haemonchus contortus L3 (HcL3) Assay; details: 96 h, read-out: HcL3 Minimum Effective Dose (MED)

`CCC(C)c1ccnn1Cc1ccc(C[C@H]2OC(=O)[C@H](CC(C)C)N(C)C(=O)[C@@H](C)OC(=O)[C@H](CC(C)C)N(C)C(=O)[C@@H](Cc3ccc(Cn4nccc4C(C)CC)cc3)OC(=O)[C@H](CC(C)C)N(C)C(=O)[C@@H](C)OC(=O)[C@H](CC(C)C)N(C)C2=O)cc1` (stereo partly drawn) [Example 1b-210, (3S,6R,9S,12R,15S,18R,21S,24R)-6,18-bis(4-((5-(sec-butyl)-1H-pyrazol-1-yl)methyl)benzyl)-3,9,15,21-tetraisobutyl-4,10,12,16,22,24-hexamethyl-1,7,13,19-tetraoxa-4,10,16,22-tetraazacyclotetracosan-2,5,8,11,14,17,20,23-octaone] gave a minimal effective concentration [1] of 0.0001 to 0.001 µM, a minimal effective concentration [2] of 0.01 to 0.1 µM and a minimal effective concentration [3] of 1 to 10 µM.
`CC(C)C[C@H]1C(=O)O[C@H](Cc2ccc(Cn3nccc3C3(F)CC3)cc2)C(=O)N(C)[C@@H](CC(C)C)C(=O)O[C@H](C)C(=O)N(C)[C@@H](CC(C)C)C(=O)O[C@H](Cc2ccc(Cn3nccc3C3(F)CC3)cc2)C(=O)N(C)[C@@H](CC(C)C)C(=O)O[C@H](C)C(=O)N1C` [Example 1b-215, (3S,6R,9S,12R,15S,18R,21S,24R)-6,18-bis(4-((5-(1-fluorocyclopropyl)-1H-pyrazol-1-yl)methyl)benzyl)-3,9,15,21-tetraisobutyl-4,10,12,16,22,24-hexamethyl-1,7,13,19-tetraoxa-4,10,16,22-tetraazacyclotetracosan-2,5,8,11,14,17,20,23-octaone] was tested, and the minimal effective concentration [1] was 0.0001 to 0.001 µM, the minimal effective concentration [2] was 0.001 to 0.01 µM and the minimal effective concentration [3] was ≤ 1 µM.
`CC(C)C[C@H]1C(=O)O[C@H](Cc2ccc(Cn3nccc3C3CC3(F)F)cc2)C(=O)N(C)[C@@H](CC(C)C)C(=O)O[C@H](C)C(=O)N(C)[C@@H](CC(C)C)C(=O)O[C@H](Cc2ccc(Cn3nccc3C3CC3(F)F)cc2)C(=O)N(C)[C@@H](CC(C)C)C(=O)O[C@H](C)C(=O)N1C` (stereo partly drawn) [Example 1b-216, (3S,6R,9S,12R,15S,18R,21S,24R)-6,18-bis(4-((5-(2,2-difluorocyclopropyl)-1H-pyrazol-1-yl)methyl)benzyl)-3,9,15,21-tetraisobutyl-4,10,12,16,22,24-hexamethyl-1,7,13,19-tetraoxa-4,10,16,22-tetraazacyclotetracosan-2,5,8,11,14,17,20,23-octaone] was tested, and the minimal effective concentration [1] was ≤ 0.0001 µM, the minimal effective concentration [2] was 0.001 to 0.01 µM and the minimal effective concentration [3] was ≤ 1 µM.
With `CC(C)C[C@H]1C(=O)O[C@H](Cc2ccc(Cn3nccc3C3(Cl)CC3)cc2)C(=O)N(C)[C@@H](CC(C)C)C(=O)O[C@H](C)C(=O)N(C)[C@@H](CC(C)C)C(=O)O[C@H](Cc2ccc(Cn3nccc3C3(Cl)CC3)cc2)C(=O)N(C)[C@@H](CC(C)C)C(=O)O[C@H](C)C(=O)N1C` [Example 1b-217, (3S,6R,9S,12R,15S,18R,21S,24R)-6,18-bis(4-((5-(1-chlorocyclopropyl)-1H-pyrazol-1-yl)methyl)benzyl)-3,9,15,21-tetraisobutyl-4,10,12,16,22,24-hexamethyl-1,7,13,19-tetraoxa-4,10,16,22-tetraazacyclotetracosan-2,5,8,11,14,17,20,23-octaone] the minimal effective concentration [1] was 0.0001 to 0.001 µM, the minimal effective concentration [2] was 0.01 to 0.1 µM and the minimal effective concentration [3] was ≤ 1 µM.
With `CC(C)C[C@H]1C(=O)O[C@H](Cc2ccc(Cn3nccc3C3(C)CC3)cc2)C(=O)N(C)[C@@H](CC(C)C)C(=O)O[C@H](C)C(=O)N(C)[C@@H](CC(C)C)C(=O)O[C@H](Cc2ccc(Cn3nccc3C3(C)CC3)cc2)C(=O)N(C)[C@@H](CC(C)C)C(=O)O[C@H](C)C(=O)N1C` [Example 1b-219, (3S,6R,9S,12R,15S,18R,21S,24R)-3,9,15,21-tetraisobutyl-4,6,10,16,18,22-hexamethyl-12,24-bis(4-((5-(1-methylcyclopropyl)-1H-pyrazol-1-yl)methyl)benzyl)-1,7,13,19-tetraoxa-4,10,16,22-tetraazacyclotetracosan-2,5,8,11,14,17,20,23-octaone] the minimal effective concentration [1] was 0.0001 to 0.001 µM, the minimal effective concentration [2] was 0.01 to 0.1 µM and the minimal effective concentration [3] was ≤ 1 µM.
